Test results as given in patent US10189809B2, “SGC stimulators” (Ironwood Pharmaceuticals, Inc., priority 2010, dated 2019).
Like-named read-outs stand apart in the source and are kept apart here.

Key:
[1] = biological target: T1, Human soluble guanylate cyclase enzyme (hsGC) (Homo sapiens (Human), UniProt Q02108+Q02153); experiment: Purified human sGC enzyme activity assay; format: biochemical; conditions: for sGC Enzyme (specific activity at 10 μM) / sGC Enzyme (fold increase at 10 μM without SNP): 10 μM compound; for sGC Enzyme (specific activity at 30 μM) / sGC Enzyme (fold increase at 30 μM without SNP) / sGC Enzyme (fold increase at 30 μM): 30 μM compound; for sGC Enzyme (fold increase at 30 μM): without the addition of SNP
T1 sequence (Q02153 whole entry): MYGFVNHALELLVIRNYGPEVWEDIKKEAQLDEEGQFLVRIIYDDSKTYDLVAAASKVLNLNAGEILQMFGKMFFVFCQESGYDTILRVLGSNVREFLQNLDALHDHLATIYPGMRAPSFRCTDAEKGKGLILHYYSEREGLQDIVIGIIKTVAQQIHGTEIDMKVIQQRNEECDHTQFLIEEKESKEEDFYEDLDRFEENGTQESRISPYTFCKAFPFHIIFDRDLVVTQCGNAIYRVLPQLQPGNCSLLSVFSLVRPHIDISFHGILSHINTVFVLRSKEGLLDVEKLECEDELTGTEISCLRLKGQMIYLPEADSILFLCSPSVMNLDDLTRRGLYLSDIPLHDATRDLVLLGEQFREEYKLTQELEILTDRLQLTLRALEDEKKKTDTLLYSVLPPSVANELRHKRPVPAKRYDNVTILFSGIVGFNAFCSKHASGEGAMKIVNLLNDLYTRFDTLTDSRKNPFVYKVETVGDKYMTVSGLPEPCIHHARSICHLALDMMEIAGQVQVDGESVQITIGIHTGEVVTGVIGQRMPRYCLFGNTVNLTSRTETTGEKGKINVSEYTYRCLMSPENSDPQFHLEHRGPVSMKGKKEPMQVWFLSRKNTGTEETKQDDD
T1 sequence (Q02108 whole entry): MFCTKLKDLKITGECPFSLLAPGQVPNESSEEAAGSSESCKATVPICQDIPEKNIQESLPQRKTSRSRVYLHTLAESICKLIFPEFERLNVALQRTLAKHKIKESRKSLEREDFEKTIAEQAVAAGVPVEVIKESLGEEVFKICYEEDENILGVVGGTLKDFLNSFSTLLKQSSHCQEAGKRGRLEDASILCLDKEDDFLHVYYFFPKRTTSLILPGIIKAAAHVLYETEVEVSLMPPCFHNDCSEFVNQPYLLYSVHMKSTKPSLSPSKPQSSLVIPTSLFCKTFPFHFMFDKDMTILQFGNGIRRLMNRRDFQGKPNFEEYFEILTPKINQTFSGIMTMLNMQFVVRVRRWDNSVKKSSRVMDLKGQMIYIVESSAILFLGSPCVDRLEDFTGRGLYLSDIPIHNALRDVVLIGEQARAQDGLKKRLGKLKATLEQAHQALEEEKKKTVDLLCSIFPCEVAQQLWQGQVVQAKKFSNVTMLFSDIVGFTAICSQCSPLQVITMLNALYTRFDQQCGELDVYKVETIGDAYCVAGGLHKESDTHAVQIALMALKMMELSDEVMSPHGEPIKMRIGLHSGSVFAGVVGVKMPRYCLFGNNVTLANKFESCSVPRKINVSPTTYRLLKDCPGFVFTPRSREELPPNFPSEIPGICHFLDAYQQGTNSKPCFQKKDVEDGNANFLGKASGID
Outline: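 Purified human sGC (5 ng) incubated 30 min at 37° C with compound at 10 or 30 μM final in pH 8.0 Tris with 300 μM GTP, 2 mM MgCl2, 2 mM DTT and 1 mM IBMX, then stopped with cold methanol. cGMP quantified against a standard curve. Specific activity (nmol cGMP/mg sGC/min) expressed as fold-change over DMSO control.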

[2] = biological target: T2, soluble guanylate cyclase (sGC) (Homo sapiens (Human), UniProt Q02108+Q02153); experiment: sGC-HEK-cGMP assay run with SNP incubation (HEK WC assay); format: cell-based; conditions: for HEK WC Assay (fold increase at 30 μM in the presence of 10 μM SNP): compound at 30 μM; for EC50: in the presence of 10 uM SNP
T2 sequence (Q02153 whole entry): as the sequence (Q02153 whole entry) above
T2 sequence (Q02108 whole entry): as the sequence (Q02108 whole entry) above
Outline: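 HEK293 cells with endogenous sGC were pretreated with 0.5 mM IBMX for 15 min at 37 °C, then exposed to test compound plus sodium nitroprusside for 10 min at 37 °C.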

[3] = biological target: T1, Human soluble guanylate cyclase enzyme (hsGC); experiment: Purified human sGC enzyme synergy assay in the presence of 1 μM sodium nitroprusside (SNP); format: biochemical; conditions: for sGC Enzyme (fold increase at 10 μM with SNP): 10 μM compound; for sGC Enzyme (fold increase at 30 μM with SNP): 30 μM compound
Experimental: Human soluble guanylate cyclase enzyme (hsGC) obtained from Enzo Inc. (P/N: ALX-201-177) was used to evaluate the activity of test compounds. The assay reactions contained 0.1 M Tris (pH 8.0), 0.5 mg/mL BSA (pH 8.0), 2 mM DTT, 2 mM MgCl2, 300 μM GTP, 1 mM 3-isobutyl-1-methylxanthine (IBMX) and 5 ng human soluble guanylate cyclase enzyme. Test compounds in DMSO were then added (2 μL, 10 or 30 μM final concentration) and incubated (200 μL, 96-well plate format) at 37° C. for 30 minutes. The controls were carried out using 2 μL DMSO. After the 30 minute incubation, the reaction was stopped with the addition of 200 μL of cold methanol. The plate was then centrifuged at 3,200 rpm for 10 minutes at room temperature. Supernatants (200 μL) were collected and transferred to a new 96 well plate for analysis.
An 8 point cGMP (Sigma-Aldrich P/N: G6129) standard curve was prepared in assay buffer ranging from 0.156-20 μM. Samples for the cGMP standard curve were then diluted with an equal volume of methanol resulting in final cGMP concentrations of 0.078-10 μM.
The cGMP standard curve was generated using GraphPad Prism Software.
Calculations: Specific Activity was determined by the amount of cGMP formed (nmoles) per mg of sGC per min. Enzyme “fold-change” was calculated by dividing Specific Activity for test compounds by Specific Activity of DMSO controls.
Enzyme assays were performed as described above, but was done in the presence of 1 μM sodium nitroprusside (SNP).

[4] = biological target: T2, soluble guanylate cyclase (sGC); experiment: sGC-HEK-cGMP assay run in the absence of SNP (HEK WC assay); format: cell-based; conditions: compound at 30 μM, absence of SNP
Outline: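 HEK293 cells with endogenous sGC, preincubated 15 min at 37° C with 0.5 mM IBMX, then exposed to test compound 10 min at 37° C without SNP. Cells lysed in 0.1 M HCl; cGMP quantified by LC/MS against a standard curve. EC50 from concentration-response curves.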

Thoracic aortic rings = experiment: Alternative thoracic aortic rings assay (Example 19b; resting tension as 100% inhibition); set-up: species or system rat; conditions: Rattus norvegicus, Table 10B; for inhibition at 1 µM: read-out: Percent Relaxation at 1 μM; for inhibition at 3 µM: read-out: Percent Relaxation at 3 μM; for inhibition at 10 µM: read-out: Percent Relaxation at 10 μM; for EC50: read-out: Aortic Ring EC50
Outline: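 Aortic rings (~2 mm) from male Sprague-Dawley rats (275-299 g) held at 1.0 g resting tension in Krebs-Henseleit at 37 °C under 95% O2/5% CO2, then precontracted with 100 ng/mL phenylephrine. Compounds in DMSO added cumulatively; relaxation recorded by force transducer and EC50 taken from concentration-response curves.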

[5] = read-out: HEK WC Assay (% Emax at 1 μM with 10 uM SNP)
[6] = read-out: HEK WC Assay (% Emax at 10 μM with 10 uM SNP)
[7] = read-out: HEK WC Assay (% Emax at 30 μM with 10 uM SNP)

Row | SMILES | sGC Enzyme (specific activity at 10 μM) [1] | sGC Enzyme (fold increase at 10 μM without SNP) [1] | sGC Enzyme (specific activity at 30 μM) [1] | sGC Enzyme (fold increase at 30 μM without SNP) [1] | sGC Enzyme (fold increase at 10 μM with SNP) ([3]; with 1 μM SNP) | sGC Enzyme (fold increase at 30 μM with SNP) ([3]; with 1 μM SNP) | HEK WC Assay (fold increase at 30 μM in the presence of 10 μM SNP) [2] | EC50 [2] | Emax [2, 6] | HEK WC Assay (fold increase at 30 μM in the absence of SNP) [4] | inhibition at 1 µM (Thoracic aortic rings) | inhibition at 3 µM (Thoracic aortic rings) | inhibition at 10 µM (Thoracic aortic rings) | EC50 (Thoracic aortic rings) | Emax [2, 7] | other results
1 | Fc1ccccc1Cn1nc(-c2ncccn2)cc1-c1ncccn1 [Compound I-13] | B (B = 50 to <100) | A (A = no increase to <2 fold increase) | C (C = 100 to <200) | A (A = no increase to <2 fold increase) | A (A = no increase to <2 fold increase) | A (A = no increase to <2 fold increase) |  |  |  |  |  |  |  |  |  | Emax at 10 µM ([2]; read-out: HEK WC Assay (% Emax at 10 uM/with 10 uM SNP)): 0 to 10%; Emax at 30 µM ([2]; read-out: HEK WC Assay (% Emax at 30 uM/with 10 uM SNP)): 0 to 10%
2 | Fc1ccccc1Cn1nc(-c2ccccn2)cc1-c1csc2ccccc12 [Compound I-18] | C (C = 100 to <200) | A (A = no increase to <2 fold increase) | C (C = 100 to <200) | A (A = no increase to <2 fold increase) | A (A = no increase to <2 fold increase) | A (A = no increase to <2 fold increase) |  |  |  |  |  |  |  |  |  | 
3 | Cc1ccccc1-c1cc(-c2ccccn2)nn1Cc1ccccc1F [Compound I-24] | C (C = 100 to <200) | A (A = no increase to <2 fold increase) | C (C = 100 to <200) | A (A = no increase to <2 fold increase) | A (A = no increase to <2 fold increase) | A (A = no increase to <2 fold increase) |  |  |  |  |  |  |  |  |  | 
4 | COc1ccccc1-c1cc(-c2ccccn2)nn1Cc1ccccc1F [Compound I-36] | C (C = 100 to <200) | A (A = no increase to <2 fold increase) | C (C = 100 to <200) | A (A = no increase to <2 fold increase) | A (A = no increase to <2 fold increase) | A (A = no increase to <2 fold increase) |  |  |  |  |  |  |  |  |  | 
5 | COc1ccccc1-c1cc(-c2ncccn2)nn1Cc1ccccc1F [Compound I-37] | C (C = 100 to <200) | A (A = no increase to <2 fold increase) | C (C = 100 to <200) | A (A = no increase to <2 fold increase) | A (A = no increase to <2 fold increase) | A (A = no increase to <2 fold increase) |  |  |  |  |  |  |  |  |  | 
6 | COc1cccc(-c2cc(-c3ccccn3)nn2Cc2ccccc2F)c1 [Compound I-38] | C (C = 100 to <200) | A (A = no increase to <2 fold increase) | C (C = 100 to <200) | A (A = no increase to <2 fold increase) | A (A = no increase to <2 fold increase) | A (A = no increase to <2 fold increase) |  |  |  |  |  |  |  |  |  | 
7 | Nc1nc(-c2cc(-c3ccon3)n(Cc3ccccc3F)n2)ncc1-c1ccsc1 [Compound I-121] |  |  |  |  |  |  |  |  |  |  |  |  |  |  |  | sGC Enzyme (fold increase at 30 μM) [1]: C (C = 5 to <10 fold increase); sGC Enzyme (fold increase at 30 μM with SNP) ([3]; with the addition of SNP): D (D = 10 to <30 fold increase)
8 | Nc1nc(-c2cc(-c3ccon3)n(Cc3ccccc3F)n2)ncc1N1CCCC1 [Compound I-129] |  |  |  |  |  |  |  |  |  |  |  |  |  |  |  | sGC Enzyme (fold increase at 30 μM) [1]: B (B = 2 to <5 fold increase); sGC Enzyme (fold increase at 30 μM with SNP) ([3]; with the addition of SNP): D (D = 10 to <30 fold increase)
9 | N#Cc1cnc(-c2cc(-c3ccon3)n(Cc3ccccc3F)n2)nc1N [Compound I-130] |  |  |  |  |  |  |  |  |  |  |  |  |  |  |  | sGC Enzyme (fold increase at 30 μM) [1]: C (C = 5 to <10 fold increase); sGC Enzyme (fold increase at 30 μM with SNP) ([3]; with the addition of SNP): D (D = 10 to <30 fold increase)
10 | Nc1nc(-c2cc(-c3ccon3)n(Cc3ccccc3F)n2)ncc1N1CCOCC1 [Compound I-139] |  |  |  |  |  |  |  |  |  |  |  |  |  |  |  | sGC Enzyme (fold increase at 30 μM) [1]: C (C = 5 to <10 fold increase); sGC Enzyme (fold increase at 30 μM with SNP) ([3]; with the addition of SNP): C (C = 5 to <10 fold increase)
11 | O=S(=O)(c1ccccc1)c1cnc(-c2cc(-c3ccon3)n(Cc3ccccc3F)n2)nc1O [Compound I-217] |  |  |  |  |  |  | F (F = 20 to <30 fold increase) | < 20 µM | 100 to 120% | D (D = 5 to <10 fold increase) | 40 to 60% | 60 to 80% | 80 to 100% | < 2 µM |  | Emax [2, 5]: 60 to 80%
12 | Nc1nc(-c2cc(-c3ccon3)n(Cc3ccccc3F)n2)ncc1NC(=O)C1(C(F)(F)F)CC1 [Compound I-237] |  |  |  |  |  |  | F (F = 20 to <30 fold increase) | < 20 µM | 100 to 120% | E (E = 10 to <20 fold increase) | 60 to 80% | 80 to 100% | 100 to 120% | < 2 µM | 100 to 120% | Emax [2, 5]: 80 to 100%
13 | N#CC1(C(=O)Nc2cnc(-c3cc(-c4ccon4)n(Cc4ccccc4F)n3)nc2N)CC1 [Compound I-238] |  |  |  |  |  |  | E (E = 10 to <20 fold increase) | < 20 µM | 100 to 120% | E (E = 10 to <20 fold increase) | 80 to 100% | 100 to 120% | 100 to 120% | < 2 µM | 100 to 120% | Emax [2, 5]: 80 to 100%
14 | CC(C)(C)C(=O)Nc1cnc(-c2cc(-c3ccon3)n(Cc3ccccc3F)n2)nc1N [Compound I-277] |  |  |  |  |  |  | E (E = 10 to <20 fold increase) | < 20 µM | 80 to 100% | D (D = 5 to <10 fold increase) | 60 to 80% | 80 to 100% | 100 to 120% | < 2 µM | 80 to 100% | Emax [2, 5]: 60 to 80%
15 | Cc1csc(-c2cc(-c3ncccn3)nn2Cc2ccccc2F)n1 [Compound I-294] |  |  |  |  |  |  | D (D = 5 to <10 fold increase) | 40 to 60 µM | 20 to 40% | B (B = 1 to <2 fold increase) | 20 to 40% | 60 to 80% | 100 to 120% | < 2 µM | 20 to 40% | 
16 | Nc1ccnc(-c2cc(-c3cnco3)n(Cc3ccccc3F)n2)n1 [Compound I-296] |  |  |  |  |  |  | E (E = 10 to <20 fold increase) | < 20 µM | 20 to 40% | C (C = 2 to <5 fold increase) | 20 to 40% | 40 to 60% | 80 to 100% |  | 60 to 80% | 
17 | Fc1ccccc1Cn1nc(-c2ccccn2)cc1-c1ncon1 [Compound I-304] |  |  |  |  |  |  | E (E = 10 to <20 fold increase) | 20 to 40 µM | 20 to 40% | C (C = 2 to <5 fold increase) | 20 to 40% | 60 to 80% | 80 to 100% | < 2 µM | 40 to 60% | 
